Reference: patent publication US11180484B2, “Pyrazole derivatives as plasma kallikrein inhibitors” (KALVISTA PHARMACEUTICALS LIMITED, priority 2016, dated 2021)
Values after ≈ are worked out from the molar mass of the structure shown. Read-outs that look alike come from different tables or passages of the source.

How the values were obtained:
Human Factor XIIa = Human Factor XIIa (Homo sapiens (Human), UniProt P00748); assay: Factor XIIa inhibitory activity in vitro; assay type: biochemical; conditions: 25° C., substrate H-DPro-Phe-Arg-AFC; read-out: IC50 (human FXIIa)
Chain of Human Factor XIIa (P00748 373-615): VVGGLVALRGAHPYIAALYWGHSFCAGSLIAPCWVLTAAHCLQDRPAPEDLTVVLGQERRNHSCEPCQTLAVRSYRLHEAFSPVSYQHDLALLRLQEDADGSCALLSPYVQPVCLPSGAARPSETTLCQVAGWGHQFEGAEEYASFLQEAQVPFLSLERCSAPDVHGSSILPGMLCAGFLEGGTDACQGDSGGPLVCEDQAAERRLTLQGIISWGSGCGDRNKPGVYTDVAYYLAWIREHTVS
Experimental: (§1) Human Factor XIIa (Enzyme Research Laboratories) was incubated at 25° C. with the fluorogenic substrate H-DPro-Phe-Arg-AFC and various concentrations of the test compound. Residual enzyme activity (initial rate of reaction) was determined by measuring the change in […] at 410 nm and the IC50 value for the test compound was determined.

[1] = Predicted plasma clearance (Clp), well-stirred model, rat; assay type: in vitro ADME; conditions: percentage of hepatic blood flow
Human plasma kallikrein = Human plasma kallikrein (Homo sapiens (Human), UniProt P03952); assay: Determination of the IC50 for plasma kallikrein; assay type: biochemical; conditions: 25° C., substrate H-DPro-Phe-Arg-AFC; read-out: IC50 (human PKal)
Chain of Human plasma kallikrein (P03952 391-638): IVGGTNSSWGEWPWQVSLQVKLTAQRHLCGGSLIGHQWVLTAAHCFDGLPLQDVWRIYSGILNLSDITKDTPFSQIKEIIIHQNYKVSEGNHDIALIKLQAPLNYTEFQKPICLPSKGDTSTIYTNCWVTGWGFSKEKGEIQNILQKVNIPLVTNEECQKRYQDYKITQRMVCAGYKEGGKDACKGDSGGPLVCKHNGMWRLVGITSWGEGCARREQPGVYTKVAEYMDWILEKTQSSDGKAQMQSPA
Chain of Human plasma kallikrein (P03952 20-390): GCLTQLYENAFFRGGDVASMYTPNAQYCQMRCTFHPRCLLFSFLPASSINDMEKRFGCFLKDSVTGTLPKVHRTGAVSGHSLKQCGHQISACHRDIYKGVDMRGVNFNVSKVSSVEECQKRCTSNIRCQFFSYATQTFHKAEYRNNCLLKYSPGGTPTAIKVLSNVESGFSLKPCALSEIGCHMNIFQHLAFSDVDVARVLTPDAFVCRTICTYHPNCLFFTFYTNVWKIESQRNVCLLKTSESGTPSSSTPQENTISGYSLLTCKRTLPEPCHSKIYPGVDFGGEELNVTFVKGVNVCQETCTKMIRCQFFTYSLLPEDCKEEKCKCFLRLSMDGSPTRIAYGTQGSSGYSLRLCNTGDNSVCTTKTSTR
Experimental: as §1, with “plasma kallikrein (Protogen)” for “Factor XIIa (Enzyme Research Laboratories)”

[2] = Pharmacokinetics following a single oral dose in male Sprague-Dawley rats; assay type: in vivo; conditions: rat, single po dose (nominal 10 mg/kg; actual dose per row in column Dose po), 10% DMSO/10% cremophor/80% SWFI, plasma
Experimental: Pharmacokinetic studies of the compounds in Table 13 were performed to assess the pharmacokinetics following a single oral dose in male Sprague-Dawley rats. Two rats were given a single po dose of 5 mL/kg of a nominal 2 mg/mL (10 mg/kg) composition of test compound in vehicle. Following dosing, blood samples were collected over a period of 24 hours. Sample times were 5, 15 and 30 minutes then 1, 2, 4, 6, 8 and 12 hours. Following collection, blood samples were centrifuged and the plasma fraction analysed for concentration of test compound by LCMS.

plasmin = plasmin (Homo sapiens (Human), UniProt P00747); assay: Determination of enzyme selectivity: plasmin; assay type: biochemical; conditions: substrate at Km concentration
Chain of plasmin (P00747 581-810): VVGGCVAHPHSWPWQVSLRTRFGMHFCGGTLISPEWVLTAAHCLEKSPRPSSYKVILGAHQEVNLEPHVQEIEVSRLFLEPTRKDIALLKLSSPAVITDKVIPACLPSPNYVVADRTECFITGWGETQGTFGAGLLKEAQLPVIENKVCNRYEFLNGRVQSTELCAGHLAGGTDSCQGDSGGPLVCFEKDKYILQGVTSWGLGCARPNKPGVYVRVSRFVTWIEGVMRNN
Chain of plasmin (P00747 97-580): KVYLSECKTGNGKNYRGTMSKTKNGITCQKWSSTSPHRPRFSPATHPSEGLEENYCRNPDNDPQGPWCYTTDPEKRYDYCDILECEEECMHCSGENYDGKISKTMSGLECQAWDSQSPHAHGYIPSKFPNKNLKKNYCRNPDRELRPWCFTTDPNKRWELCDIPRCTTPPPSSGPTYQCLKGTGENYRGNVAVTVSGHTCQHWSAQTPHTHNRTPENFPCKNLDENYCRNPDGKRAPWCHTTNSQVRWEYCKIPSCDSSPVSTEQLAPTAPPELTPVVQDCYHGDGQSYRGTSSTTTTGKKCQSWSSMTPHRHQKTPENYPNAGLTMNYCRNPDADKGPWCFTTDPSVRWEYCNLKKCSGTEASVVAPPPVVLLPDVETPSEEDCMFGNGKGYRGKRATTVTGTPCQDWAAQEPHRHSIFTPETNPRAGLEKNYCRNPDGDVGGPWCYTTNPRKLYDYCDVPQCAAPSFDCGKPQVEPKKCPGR
Experimental: (§3) Human serine protease enzymes plasmin, thrombin and trypsin were assayed for enzymatic activity using an appropriate fluorogenic substrate. Protease activity was measured by monitoring the accumulation of liberated fluorescence from the substrate over 5 minutes. The linear rate of fluorescence increase per minute was expressed as percentage (%) activity. The Km for the cleavage of each substrate was determined by standard transformation of the Michaelis-Menten equation.

Human FXIa = Human FXIa (Homo sapiens (Human), UniProt P03951); assay: Determination of the % inhibition / IC50 for FXIa; assay type: biochemical; conditions: for inhibition at 40 µM: 40 μM test compound, read-out: % Inhibition @ 40 μM (human FXIa); for IC50: 25° C., substrate Z-Gly-Pro-Arg-AFC
Chain of Human FXIa (P03951 388-625): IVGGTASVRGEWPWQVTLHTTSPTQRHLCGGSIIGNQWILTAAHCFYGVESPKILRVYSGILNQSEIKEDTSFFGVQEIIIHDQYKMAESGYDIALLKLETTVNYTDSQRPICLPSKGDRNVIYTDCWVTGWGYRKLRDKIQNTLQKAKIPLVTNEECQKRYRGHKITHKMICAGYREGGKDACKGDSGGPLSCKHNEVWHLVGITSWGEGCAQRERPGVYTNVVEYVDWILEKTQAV
Chain of Human FXIa (P03951 19-387): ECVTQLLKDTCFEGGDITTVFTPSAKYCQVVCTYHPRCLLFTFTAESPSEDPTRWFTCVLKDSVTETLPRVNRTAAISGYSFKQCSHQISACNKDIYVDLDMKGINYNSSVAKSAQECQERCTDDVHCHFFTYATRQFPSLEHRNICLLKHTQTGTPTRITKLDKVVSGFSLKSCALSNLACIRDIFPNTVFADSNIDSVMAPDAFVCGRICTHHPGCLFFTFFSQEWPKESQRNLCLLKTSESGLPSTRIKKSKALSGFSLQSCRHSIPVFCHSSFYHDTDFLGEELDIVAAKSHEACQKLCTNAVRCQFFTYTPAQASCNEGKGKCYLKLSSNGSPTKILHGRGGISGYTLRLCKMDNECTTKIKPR
Experimental: FXIa inhibitory activity in vitro was determined using standard published methods (see e.g. Johansen et al., Int. J. Tiss. Reac. 1986, 8, 185; Shori et al., Biochem. Pharmacol., 1992, 43, 1209; Sturzebecher et al., Biol. Chem. Hoppe-Seyler, 1992, 373, 1025). […]

thrombin = thrombin (Homo sapiens (Human), UniProt P00734); assay: Determination of enzyme selectivity: thrombin; assay type: biochemical; conditions: substrate at Km concentration
Experimental: as §3

[3] = Plasma protein binding (PPB), rapid equilibrium dialysis, human plasma; assay type: in vitro ADME; conditions: 5 μM test compound, dialysis 5 hrs at 37° C.
[4] = In vitro permeability, Caco-2 model for oral absorption; assay type: in vitro ADME; conditions: human, apical to basolateral, 50 μM test compound, 37° C.
In short: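 Caco-2 monolayers grown on collagen inserts for 3 days, with 50 μM compound added apically and incubated 1 hour at 37° C with shaking. Apical-to-basolateral transport measured by LCMS in both compartments. Monolayer integrity checked by TEER before and after, and by Lucifer Yellow flux.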

[5] = Predicted plasma clearance (Clp), well-stirred model, human; assay type: in vitro ADME; conditions: percentage of hepatic blood flow
[6] = Intrinsic clearance in human liver microsomes; assay type: in vitro ADME; conditions: human liver microsomes 0.5 mg/mL, 5 μM test compound, 37° C.; read-out: Human liver microsome (Clint μL/min/mg protein)
Experimental: (§2) Rat or human liver microsomes (0.5 mg/mL; Corning) were incubated with 5 μM test compound at 37° C. on a shaking platform (150 rpm). Samples were taken at 0, 6, 12, 18, 24 and 60 min and test compound concentrations were determined by LCMS against a calibration curve.

[7] = Intrinsic clearance in rat liver microsomes; assay type: in vitro ADME; conditions: rat liver microsomes 0.5 mg/mL, 5 μM test compound, 37° C.; read-out: rat liver microsome (Clint μL/min/mg protein)
Experimental: as §2

Human KLK1 = Human KLK1 (Homo sapiens (Human), UniProt P06870); assay: Determination of the IC50 for KLK1; assay type: biochemical; conditions: 25° C., substrate H-DVal-Leu-Arg-AFC
Chain of Human KLK1 (P06870 25-262): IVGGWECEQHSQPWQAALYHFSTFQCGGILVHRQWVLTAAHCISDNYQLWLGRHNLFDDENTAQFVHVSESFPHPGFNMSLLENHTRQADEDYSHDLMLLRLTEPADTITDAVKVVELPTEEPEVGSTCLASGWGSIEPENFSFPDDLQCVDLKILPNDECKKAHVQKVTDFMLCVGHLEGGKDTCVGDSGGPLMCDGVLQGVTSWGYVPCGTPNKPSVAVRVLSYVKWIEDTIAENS
Experimental: as §1, with “KLK1 (Callbiochem)” for “Factor XIIa (Enzyme Research Laboratories)”, “H-DVal-Leu-Arg-AFC” for “H-DPro-Phe-Arg-AFC”

[8] = Plasma protein binding (PPB), rapid equilibrium dialysis, rat plasma; assay type: in vitro ADME; conditions: 5 μM test compound, dialysis 5 hrs at 37° C.
trypsin = assay: Determination of enzyme selectivity: trypsin; assay type: biochemical, human; conditions: substrate at Km concentration
Experimental: as §3

[9] = Solubility in water and 0.1N HCl (aq); assay type: physicochemical; conditions: thermodynamic from solid, incubated at 1 mg/mL, 37° C.
Experimental: Solubility was determined in water and 0.1N HCl (aq). Test compounds were incubated at 1 mg/mL for 24 hrs at 37° C. on a shaking platform (500 rpm). Samples were taken at 1, 4 and 24 hrs and centrifuged at 15,000 g for 10 min. Test compound concentration in the supernatant was determined by LCMS against a standard curve.

| solubility ([9]; simulated gastric fluid, 0.1N HCl (aq), read-out: Solubility 0.1N HCl (aq)) | solubility ([9]; water, read-out: Solubility Water) | Structure (SMILES) | IC50 (Human Factor XIIa) | Predicted in vivo rat Clp (% LBF) [1] | IC50 (Human plasma kallikrein) | Cmax [2] | Tmax [2] | IC50 (plasmin) | inhibition at 40 µM (Human FXIa) | IC50 (Human FXIa) | IC50 (thrombin) | fraction unbound at 5 h, 5 μM [3] | Papp at 1 h, 50 μM [4] | Predicted in vivo human Clp (% LBF) [5] | microsomal CLint at 5 μM [6] | microsomal CLint at 5 μM [7] | IC50 (Human KLK1) | fraction unbound at 5 h, 5 μM [8] | IC50 (trypsin) |
| --- | --- | --- | --- | --- | --- | --- | --- | --- | --- | --- | --- | --- | --- | --- | --- | --- | --- | --- | --- |
|  |  | COc1ccnc(CNC(=O)c2cn(Cc3ccc(Cn4ccccc4=O)cc3)nc2C(F)(F)F)c1F [Example 6, N-[(3-fluoro-4-methoxypyridin-2-yl)methyl]-1-({4-[(2-oxopyridin-1-yl)methyl]phenyl}methyl)-3-(trifluoromethyl)pyrazole-4-carboxamide] | > 4 µM | 6 % LBF | 0.0032 µM | 1800 ng/mL | 30 min | > 40 µM | 2% | > 40 µM | > 40 µM | 0.13 | 17 ×10⁻⁶ cm/s | 24 % LBF | 42 µL/min/mg | 30 µL/min/mg | > 4 µM | 0.05 | > 40 µM |
| 940 µg/mL (≈ 1840 µM) | 290 µg/mL (≈ 569 µM) | COCc1nn(Cc2ccc(Cn3cc(F)ccc3=O)cc2)cc1C(=O)NCc1nccc(OC)c1F [Example 30, 1-({4-[(5-fluoro-2-oxopyridin-1-yl)methyl]phenyl}methyl)-N-[(3-fluoro-4-methoxypyridin-2-yl)methyl]-3-(methoxymethyl)pyrazole-4-carboxamide] | > 40 µM | 1 % LBF | 0.0067 µM | 756 ng/mL | 38 min | > 40 µM | 7% | > 40 µM | > 40 µM | 0.18 | 24 ×10⁻⁶ cm/s | 12 % LBF | 20 µL/min/mg | 22 µL/min/mg | > 40 µM | 0.03 | > 40 µM |
